According to patent US10517889B2, “Modulators of SMAD7 expression” (Ionis Pharmaceuticals, Inc., priority 2017, dated 2019):
Strand notation (5' to 3'): a small letter for the sugar, then the base; units joined by * are phosphorothioate-linked, units joined directly phosphodiester-linked; [ ] holds rarer units or linkages, { } end groups; capitals alone tell only the bases. e = 2'-O-(2-methoxyethyl) (MOE); [5mC] = 5-methylcytosine; d = 2'-deoxy (DNA)

Test system: human SMAD7 mRNA
Assay: Antisense inhibition of human SMAD7 mRNA expression in Hep3B cells by 5-10-5 MOE gapmers, single concentration, electroporation, RT-PCR (Example 1, Study 1 and 2)
Format: cell-based
Conditions: Study 2, electroporation with 15,000 nM antisense oligonucleotide, 5-10-5 MOE gapmers targeting SEQ ID NO: 1 and 2
Procedure, shortened: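 Hep3B cells (20,000/well) electroporated with 5-10-5 MOE gapmer at 5,000 nM or 15,000 nM for approximately 24 h. SMAD7 mRNA quantified by real-time PCR with primer probe set RTS5062 and normalized to RIBOGREEN total RNA. Values are percent inhibition relative to untreated controls.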

Row | Substance | % inhibition of SMAD7 mRNA expression [%]
1 | 771469 (antisense eT*eT*e[5mC]*eT*eG*d[5mC]*dA*d[5mC]*d[5mC]*dA*dG*d[5mC]*dT*dG*dA*e[5mC]*eT*e[5mC]*eT*eT) [compound 771469] | 13
2 | 771471 (antisense eG*e[5mC]*eT*e[5mC]*e[5mC]*dG*d[5mC]*dA*d[5mC]*d[5mC]*dT*dT*d[5mC]*dT*dG*e[5mC]*eA*e[5mC]*e[5mC]*eA) [compound 771471] | 43
3 | 771472 (antisense eA*eT*eT*eT*eT*dG*d[5mC]*dT*d[5mC]*d[5mC]*dG*d[5mC]*dA*d[5mC]*d[5mC]*eT*eT*e[5mC]*eT*eG) [compound 771472] | 0
4 | 771477 (antisense eT*eG*e[5mC]*eG*eG*dT*dT*dG*dT*dA*d[5mC]*dA*d[5mC]*d[5mC]*d[5mC]*eA*e[5mC]*eA*e[5mC]*eA) [compound 771477] | 20
5 | 771480 (antisense eA*eG*e[5mC]*e[5mC]*eT*dT*dG*dA*dT*dG*dG*dA*dG*dA*dA*eA*e[5mC]*e[5mC]*eG*eG) [compound 771480] | 46
6 | 771485 (antisense eA*eA*eG*e[5mC]*e[5mC]*d[5mC]*dG*dT*d[5mC]*d[5mC]*dA*d[5mC]*dG*dG*d[5mC]*eT*eG*e[5mC]*eT*eG) [compound 771485] | 15
7 | 771488 (antisense e[5mC]*eT*eG*eA*eT*d[5mC]*dT*dG*d[5mC]*dA*d[5mC]*dG*dG*dT*dA*eA*eA*eG*e[5mC]*e[5mC]) [compound 771488] | 53
8 | 771493 (antisense e[5mC]*eG*eG*eG*e[5mC]*dA*dG*d[5mC]*dT*dG*d[5mC]*dT*dG*dA*dT*eG*eA*eA*e[5mC]*eT) [compound 771493] | 17
9 | 771495 (antisense e[5mC]*eT*eA*eG*e[5mC]*d[5mC]*dA*dG*d[5mC]*dA*d[5mC]*dG*dG*dG*d[5mC]*eA*eG*e[5mC]*eT*eG) [compound 771495] | 18
10 | 771496 (antisense eT*eG*eA*e[5mC]*e[5mC]*dT*d[5mC]*dT*dA*dG*d[5mC]*d[5mC]*dA*dG*d[5mC]*eA*e[5mC]*eG*eG*eG) [compound 771496] | 20
11 | 771501 (antisense eG*e[5mC]*eA*e[5mC]*eG*d[5mC]*dG*dG*d[5mC]*dT*dA*d[5mC]*d[5mC]*dG*dG*e[5mC]*eT*eG*eT*eT) [compound 771501] | 16
12 | 771503 (antisense eG*e[5mC]*eT*e[5mC]*eA*d[5mC]*dG*d[5mC]*dT*d[5mC]*dT*dG*dT*d[5mC]*d[5mC]*e[5mC]*e[5mC]*eT*e[5mC]*e[5mC]) [compound 771503] | 27
13 | 771504 (antisense e[5mC]*eA*eG*e[5mC]*eT*d[5mC]*dA*d[5mC]*dG*d[5mC]*dT*d[5mC]*dT*dG*dT*e[5mC]*e[5mC]*e[5mC]*e[5mC]*eT) [compound 771504] | 48
14 | 771508 (antisense e[5mC]*e[5mC]*eT*eG*e[5mC]*dT*d[5mC]*dA*dG*d[5mC]*dT*d[5mC]*dA*d[5mC]*dG*e[5mC]*eT*e[5mC]*eT*eG) [compound 771508] | 8

Same assay, conditions: electroporation with 15,000 nM antisense oligonucleotide (Study 2), 5-10-5 MOE gapmers targeting SEQ ID NO: 1 and 2

Row | Substance | % Inhibition of SMAD7 mRNA [%]
15 | 771473 (antisense eA*eG*e[5mC]*e[5mC]*eG*dA*dT*dT*dT*dT*dG*d[5mC]*dT*d[5mC]*d[5mC]*eG*e[5mC]*eA*e[5mC]*e[5mC]) [compound 771473] | 37
16 | 771481 (antisense eG*e[5mC]*eA*eG*eG*d[5mC]*dT*dG*dT*dA*d[5mC]*dG*d[5mC]*d[5mC]*dT*eT*e[5mC]*eT*e[5mC]*eG) [compound 771481] | 26
17 | 771489 (antisense e[5mC]*eA*eA*eA*eG*d[5mC]*dT*dG*dA*dT*d[5mC]*dT*dG*d[5mC]*dA*e[5mC]*eG*eG*eT*eA) [compound 771489] | 34
18 | 771497 (antisense eG*eA*eA*eG*eA*dT*dG*dA*d[5mC]*d[5mC]*dT*d[5mC]*dT*dA*dG*e[5mC]*e[5mC]*eA*eG*e[5mC]) [compound 771497] | 25
19 | 771505 (antisense e[5mC]*eT*e[5mC]*eA*eG*d[5mC]*dT*d[5mC]*dA*d[5mC]*dG*d[5mC]*dT*d[5mC]*dT*eG*eT*e[5mC]*e[5mC]*e[5mC]) [compound 771505] | 29

Same assay, conditions: electroporation, 15,000 nM antisense oligonucleotide (Study 2), 5-10-5 MOE gapmers targeting SEQ ID NO: 1 and 2

Row | Substance | % inhibition of SMAD7 mRNA expression [%]
20 | 771473 (antisense eA*eG*e[5mC]*e[5mC]*eG*dA*dT*dT*dT*dT*dG*d[5mC]*dT*d[5mC]*d[5mC]*eG*e[5mC]*eA*e[5mC]*e[5mC]) [compound 771473] | 9
21 | 771475 (antisense e[5mC]*eG*eT*e[5mC]*eA*dG*d[5mC]*dT*dG*dG*dA*dT*dG*d[5mC]*d[5mC]*eG*e[5mC]*eA*eG*e[5mC]) [compound 771475] | 26
22 | 771481 (antisense eG*e[5mC]*eA*eG*eG*d[5mC]*dT*dG*dT*dA*d[5mC]*dG*d[5mC]*d[5mC]*dT*eT*e[5mC]*eT*e[5mC]*eG) [compound 771481] | 0
23 | 771482 (antisense e[5mC]*e[5mC]*eG*e[5mC]*eT*dG*d[5mC]*dA*dG*dG*d[5mC]*dT*dG*dT*dA*e[5mC]*eG*e[5mC]*e[5mC]*eT) [compound 771482] | 38
24 | 771483 (antisense eA*e[5mC]*eG*eG*e[5mC]*dT*dG*d[5mC]*dT*dG*d[5mC]*dA*dT*dA*dA*eA*e[5mC]*eT*e[5mC]*eG) [compound 771483] | 22
25 | 771489 (antisense e[5mC]*eA*eA*eA*eG*d[5mC]*dT*dG*dA*dT*d[5mC]*dT*dG*d[5mC]*dA*e[5mC]*eG*eG*eT*eA) [compound 771489] | 27
26 | 771490 (antisense e[5mC]*eT*eT*e[5mC]*eA*d[5mC]*dA*dA*dA*dG*d[5mC]*dT*dG*dA*dT*e[5mC]*eT*eG*e[5mC]*eA) [compound 771490] | 44
27 | 771491 (antisense eG*eG*e[5mC]*e[5mC]*e[5mC]*d[5mC]*dA*dG*d[5mC]*d[5mC]*d[5mC]*dT*dT*d[5mC]*dA*e[5mC]*eA*eA*eA*eG) [compound 771491] | 39
28 | 771497 (antisense eG*eA*eA*eG*eA*dT*dG*dA*d[5mC]*d[5mC]*dT*d[5mC]*dT*dA*dG*e[5mC]*e[5mC]*eA*eG*e[5mC]) [compound 771497] | 0
29 | 771498 (antisense e[5mC]*eT*eG*eT*eT*dG*dA*dA*dG*dA*dT*dG*dA*d[5mC]*d[5mC]*eT*e[5mC]*eT*eA*eG) [compound 771498] | 48
30 | 771499 (antisense eG*e[5mC]*eT*eA*e[5mC]*d[5mC]*dG*dG*d[5mC]*dT*dG*dT*dT*dG*dA*eA*eG*eA*eT*eG) [compound 771499] | 1
31 | 771505 (antisense e[5mC]*eT*e[5mC]*eA*eG*d[5mC]*dT*d[5mC]*dA*d[5mC]*dG*d[5mC]*dT*d[5mC]*dT*eG*eT*e[5mC]*e[5mC]*e[5mC]) [compound 771505] | 0

Same assay, conditions: electroporation, 15,000 nM, approximately 24 hours, relative to untreated control cells, gapmers targeting SEQ ID NO: 1 and 2

Row | Substance | % inhibition of SMAD7 mRNA expression [%]
32 | 771470 (antisense eG*e[5mC]*eA*e[5mC]*e[5mC]*dT*dT*d[5mC]*dT*dG*d[5mC]*dA*d[5mC]*d[5mC]*dA*eG*e[5mC]*eT*eG*eA) [compound 771470] | 56
33 | 771478 (antisense e[5mC]*eA*e[5mC]*e[5mC]*eT*dT*dG*dT*dG*dT*dA*d[5mC]*d[5mC]*dA*dA*e[5mC]*eA*eG*e[5mC]*eG) [compound 771478] | 53
34 | 771486 (antisense e[5mC]*eG*eG*eT*eA*dA*dA*dG*d[5mC]*d[5mC]*d[5mC]*dG*dT*d[5mC]*d[5mC]*eA*e[5mC]*eG*eG*e[5mC]) [compound 771486] | 52
35 | 771494 (antisense e[5mC]*eA*eG*e[5mC]*eA*d[5mC]*dG*dG*dG*d[5mC]*dA*dG*d[5mC]*dT*dG*e[5mC]*eT*eG*eA*eT) [compound 771494] | 20
36 | 771502 (antisense e[5mC]*eG*e[5mC]*eT*e[5mC]*dT*dG*dT*d[5mC]*d[5mC]*d[5mC]*d[5mC]*dT*d[5mC]*d[5mC]*eG*e[5mC]*eA*e[5mC]*eG) [compound 771502] | 48
